# Peptide text beside a SMILES is read from it.
# Tests used:
# [1] = tested on: Pseudomonas aeruginosa PAO1 (wt strain); format: cell-based; conditions: for Improvement over Native Sequence (SEQ No. 2) P. aeruginosa PAO1 wt: fold, from MIC in 1/8 MHB
# Experimental: (§1) The minimum inhibitory concentrations (MIC) of the peptides were determined in a double assay of triplicates using a positive control sample (gentamycin) and a negative control sample (0.9% NaCl solution), according to a modified protocol from Wiegand et al. (Wiegand, 2008).
# (§2) For this purpose, the peptides were dissolved in water and were diluted in a double dilution series with 1/8 MH (eight-fold diluted Mueller-Hinton-Medium—2.6 g/L, Merck) in sterile 96-well, plates (Greiner Bio-One GmbH) in twelve dilution steps from 128 μg/mL to 62.5 ng/mL. Overnight cultures were adjusted using ⅛ MHB to approximately 1.5×10^7 colony forming units per mL. Of these, 50 μL of peptide solution per well was mixed with 50 μL bacteria solution each to obtain an initial concentration of […] bacteria per well. After 20 hours of incubation at 37′C, the absorption was determined at 595 nm (microplate reader, Wallac Victor3, Perkin Elmer). The minimum inhibitory concentration was identified as the lowest peptide concentration at which no bacterial growth could be detected.
# (§3) In the experiment, the antibacterial activity of the peptides according to the invention in relation to the following bacterial strains was analyzed: Pseudomonas aeruginosa PAO1 (wt strain), Pseudomonas aeruginosa DSM 9644, Staphylococcus aureus DSM 1104/ATCC 25923, Staphylococcus aureus ATCC 6247, Escherichia coli UB 1005 (F—, nalA37, metB1) and Escherichia coli ATCC25922.
# [2] = tested on: Staphylococcus aureus DSM 1104/ATCC 25923; format: cell-based; conditions: for MIC S. aureus ATCC 25923 / MIC S. aureus DSM 1104/ATCC 25923: DSM 1104; for Improvement over Native Sequence (SEQ No. 2) S. aureus ATCC 25923: fold, from MIC in 1/8 MHB
# Experimental: as §1, §2, §3
# Escherichia coli UB 1005 = experiment: Minimum inhibitory concentration (MIC), broth microdilution; format: cell-based; conditions: for MIC E. coli UB1005: 1/8 MHB, Table 4; for Improvement over Native Sequence (SEQ No. 2) E. coli UB1005: fold, from MIC in 1/8 MHB
# Experimental: as §1, §2, §3
# S. aureus DSM 6247 = format: cell-based, Staphylococcus aureus
# Experimental: as §1, §2, §3
# [3] = tested on: Escherichia coli ATCC25922; format: cell-based
# [4] = tested on: Pseudomonas aeruginosa DSM 9644; format: cell-based
# Experimental: as §1
# as §2, with “For this purpose, the peptides were dissolved in water and were diluted in a double dilution series with 1/8 MH (eight-fold diluted Mueller-Hinton-Medium—2.6 g/L, Merck) in sterile 96-well, plates (Greiner Bio-One GmbH) in twelve dilution steps from 128 μg/mL to 62.5 ng/mL.” left out
# as §3
Compound,MIC P. aeruginosa PAO1 wt [1],Improvement over Native Sequence (SEQ No. 2) P. aeruginosa PAO1 wt [1],MIC S. aureus ATCC 25923 [2],MIC S. aureus DSM 1104/ATCC 25923 [2],Improvement over Native Sequence (SEQ No. 2) S. aureus ATCC 25923 [2],MIC E. coli UB1005 (Escherichia coli UB 1005),Improvement over Native Sequence (SEQ No. 2) E. coli UB1005 (Escherichia coli UB 1005),MIC S. aureus DSM 6247 (S. aureus DSM 6247),MIC E. coli ATCC 25922 [3],MIC P. aeruginosa PAO DSM 9644 [4]
CC[C@H](C)[C@H](NC(=O)[C@H](Cc1ccc(O)cc1)NC(=O)[C@@H](NC(=O)[C@@H]1CCCN1C(=O)[C@H](CCCNC(=N)N)NC(=O)[C@H](CC(N)=O)NC(=O)[C@H](Cc1c[nH]c2ccccc12)NC(=O)CN)C(C)C)C(=O)N1CCC[C@H]1C(=O)N[C@@H](CCCNC(=N)N)C(=O)N1CCC[C@H]1C(=O)N[C@@H](CCCNC(=N)N)C(=O)N[C@@H](CCCNC(=N)N)C(=O)N1CCC[C@H]1C(=O)N[C@@H](Cc1c[nH]cn1)C(=O)N1CCC[C@H]1C(=O)N[C@@H](CCCNC(=N)N)C(=O)N[C@@H](CC(C)C)C(N)=O [compound 50] (H-GWNRPVYIPRPRRPHPRL-NH2; N-terminus assumed),32 µg/mL,16,2 µg/mL,2 µg/mL,128,2.5 µg/mL,2,2 µg/mL,8 µg/mL,32 µg/mL
CC[C@H](C)[C@H](NC(=O)[C@H](Cc1ccc(O)cc1)NC(=O)[C@@H](NC(=O)[C@H](CS)NC(=O)[C@H](CCCNC(=N)N)NC(=O)[C@H](CC(N)=O)NC(=O)[C@H](CC(N)=O)NC(=O)CN)C(C)C)C(=O)N1CCC[C@H]1C(=O)N[C@@H](CCC(N)=O)C(=O)N1CCC[C@H]1C(=O)N[C@@H](CCCNC(=N)N)C(=O)N1CCC[C@H]1C(=O)N1CCC[C@H]1C(=O)N[C@@H](Cc1c[nH]cn1)C(=O)N1CCC[C@H]1C(=O)N[C@@H](CCCNC(=N)N)C(=O)N[C@@H](CC(C)C)C(N)=O [compound 56] (H-GNNRCVYIPQPRPPHPRL-NH2; N-terminus assumed),125 µg/mL,4,31 µg/mL,,8,10 µg/mL,1,,,
CC[C@H](C)[C@H](NC(=O)[C@H](Cc1ccc(O)cc1)NC(=O)[C@@H](NC(=O)[C@@H]1CCCN1C(=O)[C@H](CC(=O)O)NC(=O)[C@H](CC(N)=O)NC(=O)[C@H](CC(N)=O)NC(=O)CN)C(C)C)C(=O)N1CCC[C@H]1C(=O)N[C@@H](CCC(N)=O)C(=O)N1CCC[C@H]1C(=O)N[C@@H](CCCNC(=N)N)C(=O)N1CCC[C@H]1C(=O)N1CCC[C@H]1C(=O)N[C@@H](Cc1c[nH]cn1)C(=O)N1CCC[C@H]1C(=O)N[C@@H](CCCNC(=N)N)C(=O)N[C@@H](CC(C)C)C(N)=O [compound 91] (H-GNNDPVYIPQPRPPHPRL-NH2; N-terminus assumed),121.0 µg/mL,4,>60.5 µg/mL,,,>19.4 µg/mL,<0.25,,,
CC[C@H](C)[C@H](NC(=O)[C@H](Cc1ccc(O)cc1)NC(=O)[C@@H](NC(=O)[C@@H]1CCCN1C(=O)[C@H](CCCNC(=N)N)NC(=O)[C@H](CC(N)=O)NC(=O)[C@H](CC(N)=O)NC(=O)CN)C(C)C)C(=O)N1CCC[C@H]1C(=O)N[C@@H](CCC(N)=O)C(=O)N1CCC[C@H]1C(=O)N[C@@H](CCCNC(=N)N)C(=O)N1CCC[C@H]1C(=O)N1CCC[C@H]1C(=O)N[C@@H](Cc1c[nH]cn1)C(=O)N1CCC[C@H]1C(=O)N[C@@H](CCCNC(=N)N)C(=O)N[C@@H](CC(C)C)C(N)=O [compound 90] (H-GNNRPVYIPQPRPPHPRL-NH2; N-terminus assumed),250 µg/mL,2,>125 µg/mL,>125 µg/mL,,1.25 µg/mL,4,64 µg/mL,2 µg/mL,
CC[C@H](C)[C@H](NC(=O)[C@H](Cc1ccc(O)cc1)NC(=O)[C@@H](NC(=O)[C@@H]1CCCN1C(=O)[C@H](CCCNC(=N)N)NC(=O)[C@H](CC(N)=O)NC(=O)[C@H](CC(N)=O)NC(=O)CN)C(C)C)C(=O)N1CCC[C@H]1C(=O)N[C@@H](CCC(N)=O)C(=O)N1CCC[C@H]1C(=O)N[C@@H](CCCNC(=N)N)C(=O)N1CCC[C@H]1C(=O)N1CCC[C@H]1C(=O)N[C@@H](Cc1c[nH]cn1)C(=O)N1CCC[C@H]1C(=O)N[C@@H](CCCNC(=N)N)C(=O)N[C@@H](CCCNC(=N)N)C(N)=O [compound 62] (H-GNNRPVYIPQPRPPHPRR-NH2; N-terminus assumed),125 µg/mL,4,125 µg/mL,,2,1.25 to 2.5 µg/mL,2-4,,,
CC[C@H](C)[C@H](NC(=O)[C@H](Cc1ccc(O)cc1)NC(=O)[C@@H](NC(=O)[C@@H]1CCCN1C(=O)[C@H](CCCNC(=N)N)NC(=O)[C@H](CC(N)=O)NC(=O)[C@H](Cc1c[nH]c2ccccc12)NC(=O)CN)C(C)C)C(=O)N1CCC[C@H]1C(=O)N[C@@H](CCCNC(=N)N)C(=O)N1CCC[C@H]1C(=O)N[C@@H](CCCNC(=N)N)C(=O)N1CCC[C@H]1C(=O)N1CCC[C@H]1C(=O)N[C@@H](Cc1c[nH]cn1)C(=O)N1CCC[C@H]1C(=O)N[C@@H](CCCNC(=N)N)C(=O)N[C@@H](CC(C)C)C(N)=O [compound 63] (H-GWNRPVYIPRPRPPHPRL-NH2; N-terminus assumed),16 to 32 µg/mL,16-32,16 µg/mL,,16,,8,,,
CC(C)C[C@H](NC(=O)[C@H](CCCNC(=N)N)NC(=O)[C@@H]1CCCN1C(=O)[C@H](Cc1c[nH]cn1)NC(=O)[C@@H]1CCCN1C(=O)[C@@H]1CCCN1C(=O)[C@H](CCCNC(=N)N)NC(=O)[C@@H]1CCCN1C(=O)[C@H](CCC(N)=O)NC(=O)[C@@H]1CCCN1C(=O)[C@H](CCCNC(=N)N)NC(=O)[C@H](Cc1ccc(O)cc1)NC(=O)[C@@H](NC(=O)[C@@H]1CCCN1C(=O)[C@H](CCCNC(=N)N)NC(=O)[C@H](CC(N)=O)NC(=O)[C@H](CC(N)=O)NC(=O)CN)C(C)C)C(N)=O [compound 58] (H-GNNRPVYRPQPRPPHPRL-NH2; N-terminus assumed),64 µg/mL,8,63 µg/mL,,4,0.313 µg/mL,16,,,
CC[C@H](C)[C@H](NC(=O)[C@H](Cc1ccc(O)cc1)NC(=O)[C@@H](NC(=O)[C@@H]1CCCN1C(=O)[C@H](CCCNC(=N)N)NC(=O)[C@H](CC(N)=O)NC(=O)[C@H](CC(N)=O)NC(=O)CN)C(C)C)C(=O)N1CCC[C@H]1C(=O)N[C@@H](CCC(N)=O)C(=O)N1CCC[C@H]1C(=O)N[C@@H](CCCNC(=N)N)C(=O)N[C@@H](CCCNC(=N)N)C(=O)N1CCC[C@H]1C(=O)N[C@@H](Cc1c[nH]cn1)C(=O)N1CCC[C@H]1C(=O)N[C@@H](CCCNC(=N)N)C(=O)N[C@@H](CC(C)C)C(N)=O [compound 59] (H-GNNRPVYIPQPRRPHPRL-NH2; N-terminus assumed),125 µg/mL,4,31 µg/mL,,8,10 µg/mL,1,,,
CC[C@H](C)[C@H](NC(=O)[C@H](Cc1ccc(O)cc1)NC(=O)[C@@H](NC(=O)[C@@H]1CCCN1C(=O)[C@H](CCCNC(=N)N)NC(=O)[C@H](CC(N)=O)NC(=O)[C@H](CCCNC(=N)N)NC(=O)CN)C(C)C)C(=O)N1CCC[C@H]1C(=O)N[C@@H](CCC(N)=O)C(=O)N1CCC[C@H]1C(=O)N[C@@H](CCCNC(=N)N)C(=O)N1CCC[C@H]1C(=O)N1CCC[C@H]1C(=O)N[C@@H](Cc1c[nH]cn1)C(=O)N1CCC[C@H]1C(=O)N[C@@H](CCCNC(=N)N)C(=O)N[C@@H](CC(C)C)C(N)=O [compound 55] (H-GRNRPVYIPQPRPPHPRL-NH2; N-terminus assumed),64 to 128 µg/mL,4-8,32 µg/mL,,8,0.625 µg/mL,8,,,
